Assay results as given in publication PMC7273348, “Unraveling a Tangled Skein: Evolutionary Analysis of the Bacterial Gibberellin Biosynthetic Operon” (mSphere, 2020).

Target: T1, ReIDS2 (ReGGPS2) (Rhizobium etli, UniProt Q8KLD2)
T1 construct: gene RHE_PD00244; full-length ORF in pET101/D-TOPO, C-terminal 6xHis tag, E. coli BL21 Star
T1 sequence (Q8KLD2 1-309): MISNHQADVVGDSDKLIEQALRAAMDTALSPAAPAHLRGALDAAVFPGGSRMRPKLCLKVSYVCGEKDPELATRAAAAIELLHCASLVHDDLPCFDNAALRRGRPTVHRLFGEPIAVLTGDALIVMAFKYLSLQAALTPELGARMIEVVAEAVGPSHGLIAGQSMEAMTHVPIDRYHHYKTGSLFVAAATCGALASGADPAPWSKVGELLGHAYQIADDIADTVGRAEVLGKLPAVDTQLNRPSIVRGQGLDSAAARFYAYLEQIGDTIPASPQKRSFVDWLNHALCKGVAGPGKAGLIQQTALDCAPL
Experiment: LC-MS/MS detection of GGPP product
Format: biochemical
Settings: 50 uM IPP + 50 uM DMAPP; MOPSO pH 7.2, 10 mM MgCl2; 30 C, 2 h; main product GGPP

## CC(C)=CCOP(=O)(O)OP(=O)(O)O [DMAPP]
  LC-MS/MS detection of GGPP product: produced GGPP as its major product from the universal isoprenoid precursors IPP and DMAPP
